Experimental data: US11986471B2, “Compounds and methods of use” (Tango Therapeutics, Inc., priority 2018, dated 2024)

Tests used:
HAP1 MTAP-deleted = test: SDMA in-cell western assay, HAP1 MTAP-deleted cell line; assay type: cell-based; details: for IC50: Homo sapiens, HAP1 MTAP-deleted cell line; for MTAP Intact/Deleted Ratio: IC50 ratio HAP1 MTAP-intact / HAP1 MTAP-deleted
How it was run: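 Symmetric dimethylarginine (SDMA) levels were measured by in-cell western in MTAP-null HAP1 cells, one half of an MTAP-isogenic pair whose partner line expresses endogenous MTAP. Compound potency is reported as IC50.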

PRMT5 [1] = molecular target: T1, PRMT5 (Homo sapiens, UniProt O14744); test: PRMT5 IC50 assay in the presence of MTA as cofactor; assay type: biochemical; details: for IC50: PRMT5, MTA as cofactor
T1 construct: purchased Viva (custom protein)
How it was run: (§1)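 IC50 against PRMT5 determined with SAM as cofactor, with no cofactor, and with MTA as cofactor. Ki derived as IC50/1.5 for the SAM assay and IC50/13.5 for the MTA assay; SAM Ki to MTA Ki ratio also reported.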

HAP1 MTAP-intact = test: SDMA in-cell western assay, HAP1 MTAP-intact cell line; assay type: cell-based; details: Homo sapiens
How it was run: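 Symmetric dimethylarginine (SDMA) levels were measured by in-cell western in an isogenic HAP1 pair, one expressing endogenous MTAP and one MTAP-null, and IC50 values were derived for each line. Compounds whose IC50 ratio between the lines is 3-fold or more are classed as MTAP-selective.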

PRMT5 [2] = molecular target: T1, PRMT5; test: PRMT5 IC50 assay with no cofactor; assay type: biochemical
How it was run: as §1

PRMT5 [3] = molecular target: T1, PRMT5; test: PRMT5 IC50 assay in the presence of SAM as cofactor; assay type: biochemical
How it was run: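 IC50 values were measured against human PRMT5 with SAM, with MTA, or with no cofactor. Ki was derived from IC50 as Ki=IC50/1.5 with SAM and Ki=IC50/13.5 with MTA, and the Ki(SAM)/Ki(MTA) ratio was then taken.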

[4] = ratio between the Ki in the presence of SAM and the Ki in the presence of MTA

T1 sequence (O14744 whole entry): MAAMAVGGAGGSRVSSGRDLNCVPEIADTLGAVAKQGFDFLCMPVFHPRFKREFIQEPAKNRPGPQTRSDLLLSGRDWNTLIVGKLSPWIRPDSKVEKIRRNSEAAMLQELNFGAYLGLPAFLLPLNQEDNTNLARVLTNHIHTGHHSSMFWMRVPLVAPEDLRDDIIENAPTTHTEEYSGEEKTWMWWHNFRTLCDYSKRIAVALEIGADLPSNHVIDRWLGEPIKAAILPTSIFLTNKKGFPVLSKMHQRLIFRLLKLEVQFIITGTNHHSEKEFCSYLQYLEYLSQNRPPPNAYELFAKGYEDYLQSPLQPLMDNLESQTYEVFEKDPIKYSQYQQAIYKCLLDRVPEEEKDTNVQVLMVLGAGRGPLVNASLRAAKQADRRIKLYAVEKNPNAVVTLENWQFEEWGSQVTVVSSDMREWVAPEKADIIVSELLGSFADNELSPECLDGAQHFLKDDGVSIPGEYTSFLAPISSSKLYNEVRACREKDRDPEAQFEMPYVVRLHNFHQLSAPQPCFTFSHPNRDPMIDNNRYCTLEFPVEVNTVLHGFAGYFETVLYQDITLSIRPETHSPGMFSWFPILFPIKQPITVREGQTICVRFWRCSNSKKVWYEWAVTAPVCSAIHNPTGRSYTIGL
T1 sequence (Q9BQA1 whole entry partner): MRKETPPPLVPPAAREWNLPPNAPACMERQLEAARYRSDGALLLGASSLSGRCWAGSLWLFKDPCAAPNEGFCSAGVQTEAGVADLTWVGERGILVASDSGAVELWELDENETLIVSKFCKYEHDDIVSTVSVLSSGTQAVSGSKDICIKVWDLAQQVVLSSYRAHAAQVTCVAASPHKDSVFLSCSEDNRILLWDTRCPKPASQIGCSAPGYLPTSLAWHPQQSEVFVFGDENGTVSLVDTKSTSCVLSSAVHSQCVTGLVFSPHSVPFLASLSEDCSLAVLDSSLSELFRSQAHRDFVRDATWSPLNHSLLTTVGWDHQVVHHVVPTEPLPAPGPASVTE

Structure (SMILES) | IC50 (HAP1 MTAP-deleted) [µM] | MTAP Intact/Deleted Ratio (HAP1 MTAP-deleted) | IC50 (PRMT5 [1]) [µM] | SAM/MTA Ratio (PRMT5 [1]; ratio between Ki in the presence of SAM and Ki in the presence of MTA) | IC50 (HAP1 MTAP-intact) [µM] | IC50 (PRMT5 [2]; read-out: No Co-factor IC50) [µM] | IC50 (PRMT5 [3]) [µM] | SAM/MTA Ratio (PRMT5 [1]; [4]) | IC50 (PRMT5 [2]) [µM]
CC(C)N1CCN(c2nc(NC3COC3)cc(C(=O)NC[C@H](O)CN3CCc4cc(OCc5cnco5)ccc4C3)n2)CC1 [Compound 296, (S)—N-(2-hydroxy-3-(6-(oxazol-5-ylmethoxy)-3N-dihydroisoquinolin-2(1H)-yl)propyl)-2-(4-isopropylpiperazin-1-yl)-6-(oxetan-3-ylamino)pyrimidine-4-carboxamide] | 1 to 10 | C* (an IC50 ratio of less than 3 fold between the IC50 in the HAP1 MTAP-intact cell line and the HAP1 MTAP-deleted cell line) | 0.05 to 0.5 | A (a Ki ratio greater than or equal to 10 fold between the Ki in the presence of SAM and the Ki in the presence of MTA) | ≥ 10 | 0.5 to 5 | 0.05 to 0.5 |  | 
CC(C)C(=O)N1CCN(c2cc(C(=O)NC[C@H](O)CN3CCc4cc(OCc5cnco5)ccc4C3)cc(NC3CCC3)n2)CC1 [Compound 481, (S)-2-(cyclobutylamino)-N-(2-hydroxy-3-(6-(oxazol-5-ylmethoxy)-3,4-dihydroisoquinolin-2(1H)-yl)propyl)-6-(4-isobutyrylpiperazin-1-yl)isonicotinamide] | < 1 | C* (an IC50 ratio of less than 3 fold between the IC50 in the HAP1 MTAP-intact cell line and the HAP1 MTAP-deleted cell line) | 0.05 to 0.5 |  | < 1 |  | 0.05 to 0.5 | A (a Ki ratio greater than or equal to 10 fold between the Ki in the presence of SAM and the Ki in the presence of MTA) | 0.5 to 5
CCN(C)c1nc(NC2COC2)cc(C(=O)NC[C@H](O)CN2CCc3c(ccc(OCc4ocnc4C)c3C)C2)n1 [Compound 477] | 1 to 10 | B* (an IC50 ratio greater than or equal to 3 fold but lower than 10 fold between the IC50 in the HAP1 MTAP-intact cell line and the HAP1 MTAP-deleted cell line) | 0.05 to 0.5 |  | ≥ 10 |  | 0.05 to 0.5 | A (a Ki ratio greater than or equal to 10 fold between the Ki in the presence of SAM and the Ki in the presence of MTA) | ≥ 5
Cc1ncoc1COc1ccc2c(c1)CCN(C[C@@H](O)CNC(=O)c1cc(NC3COC3)nc(N3CCN(C(=O)C(C)C)CC3)n1)C2 [Compound 454, N-[(2S)-2-hydroxy-3-{6-[(4-methyl-1,3-oxazol-5-yl)methoxy]-1,2,3,4-tetrahydroisoquinolin-2-yl}propyl]-2-[4-(2-methylpropanoyl)piperazin-1-yl]-6-[(oxetan-3-yl)amino]pyrimidine-4-carboxamide] | < 1 | B* (an IC50 ratio greater than or equal to 3 fold but lower than 10 fold between the IC50 in the HAP1 MTAP-intact cell line and the HAP1 MTAP-deleted cell line) | 0.05 to 0.5 |  | 1 to 10 |  | 0.05 to 0.5 | A (a Ki ratio greater than or equal to 10 fold between the Ki in the presence of SAM and the Ki in the presence of MTA) | 0.5 to 5
Cc1ncoc1COc1ccc2c(c1)CCN(C[C@@H](O)CNC(=O)c1cc(NC3CCC3)nc(N3C4CCC3COC4)c1)C2 [Compound 598] | < 1 | C* (an IC50 ratio of less than 3 fold between the IC50 in the HAP1 MTAP-intact cell line and the HAP1 MTAP-deleted cell line) | 0.05 to 0.5 |  | < 1 |  | 0.05 to 0.5 | A (a Ki ratio greater than or equal to 10 fold between the Ki in the presence of SAM and the Ki in the presence of MTA) | 0.5 to 5
